Literature values, collected in patent US8062679B2, “Composition for maintaining androgen and androgen-like uptake potential by cells” (Northern Innovations and Formulations Corp., priority 2007, dated 2011).
Like-named read-outs stand apart in the source and are kept apart here.

What was measured:
[1] = fights ROS under low oxygen tension
aromatase = target: T1, aromatase (Homo sapiens, UniProt P11511)
T1 sequence (P11511 1-503): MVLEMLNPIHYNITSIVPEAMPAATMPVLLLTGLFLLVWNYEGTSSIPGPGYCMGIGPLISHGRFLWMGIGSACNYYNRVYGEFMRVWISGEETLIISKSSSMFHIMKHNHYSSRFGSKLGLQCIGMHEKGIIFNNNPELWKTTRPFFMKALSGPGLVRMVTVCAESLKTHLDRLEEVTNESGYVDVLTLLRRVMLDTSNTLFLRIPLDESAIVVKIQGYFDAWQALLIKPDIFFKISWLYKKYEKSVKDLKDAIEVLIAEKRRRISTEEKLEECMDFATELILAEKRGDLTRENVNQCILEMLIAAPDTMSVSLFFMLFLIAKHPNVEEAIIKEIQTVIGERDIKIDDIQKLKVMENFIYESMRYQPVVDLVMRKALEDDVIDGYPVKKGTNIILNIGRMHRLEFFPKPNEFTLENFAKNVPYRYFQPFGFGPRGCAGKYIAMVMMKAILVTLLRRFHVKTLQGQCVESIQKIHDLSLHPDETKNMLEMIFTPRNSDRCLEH

[2] = human blood
[3] = three weeks, equivalent of 2 g elemental carnitine per day; cross-over, placebo controlled
[4] = prolonged L-carnitine administration
lutenizing hormone (LH) = details: after exercise, animals
[5] = test system: mitochondrial permeability transition
GH [6] = details: oral, both 0.5 mg and 5.0 mg
GH [7] = test system: GH
GH [8] = test system: GH; remark: listed apart in the source

COC1=C(OC)C(=O)C(CCCCCCCCCCO)=C(C)C1=O [Idebenone]
antioxidant activity [1]: potent antioxidant

CCCCC/C=C\C/C=C\CCCCCCCC(=O)O [linoleic]
aromatase activity (aromatase): efficient suppressors

COC1=C(OC)C(=O)C(C/C=C(\C)CC/C=C(\C)CC/C=C(\C)CC/C=C(\C)CC/C=C(\C)CC/C=C(\C)CC/C=C(\C)CC/C=C(\C)CC/C=C(\C)CCC=C(C)C)=C(C)C1=O [CoQ10, ubidecarenone]
antioxidant activity [2]: potent antioxidant | exercise duration (individuals suffering from angina, vs untreated groups): able to exercise for longer periods | myocardial function (patients with disease conditions involving energy production deficits): improved

C[N+](C)(C)C[C@H](O)CC(=O)[O-].O=C(O)C(O)C(O)C(=O)O [LCLT, L-carnitine L-tartrate]
muscle damage produced by an acute bout of high-intensity resistance exercise [3]: reduce muscle damage

conjugated linoleic acids
aromatase activity (aromatase): efficient suppressors

C[N+](C)(C)C[C@H](O)CC(=O)[O-] [L-carnitine]
pain and damage from eccentric muscular effort [4]: protective effect

CC(C)=CCC[C@](C)(O[C@@H]1O[C@H](CO[C@@H]2O[C@H](CO)[C@@H](O)[C@H](O)[C@H]2O)[C@@H](O)[C@H](O)[C@H]1O)[C@H]1CC[C@]2(C)[C@@H]1[C@H](O)C[C@@H]1[C@@]3(C)CC[C@H](O[C@@H]4O[C@H](CO)[C@@H](O)[C@H](O)[C@H]4O[C@@H]4O[C@H](CO)[C@@H](O)[C@H](O)[C@H]4O)C(C)(C)[C@@H]3CC[C@]12C [Ginsenoside Rb1]
secretion of lutenizing hormone (LH) (lutenizing hormone (LH)): stimulate the secretion

CC/C=C\C/C=C\C/C=C\CCCCCCCC(=O)O [linolenic]
aromatase activity (aromatase): efficient suppressors

CCCCCCCCCCC1=C(C)C(=O)C(OC)=C(OC)C1=O [Decylubiquinone]
redox-dependent mitochondrial permeability transition [5]: effectively block

COc1ccc2[nH]cc(CCNC(C)=O)c2c1 [melatonin, N-Acetyl-5-methoxytryptamine]
plasma GH concentrations (GH [6]): significant increase | time of peak plasma GH (GH [6]): 60 min | GH, area under the curve (GH [7]; 5.0 mg orally 60 minutes prior to bicycle exercise at 70% VO2max, vs placebo): significant increases | time of GH peak following exercise (GH [7]; 5.0 mg orally 60 minutes prior to exercise): 30 min | serum free GH following a single bout of heavy-resistance exercise (GH [8]; 0.5 and 5.0 mg, weight-trained young males): significantly more effective than placebo | serum IGFBP-3 (GH [8]; pre- and post-exercise periods): notable increases
